A word on the solubility: it is the dissolved amount per volume that the medium holds.

A short description of this series: physchem. As to conditions: aqueous.

In brackets after ≈: the same amount, converted by molar mass. Non-standard residues stand in square brackets, D forms with d. Residues, ends and D or L forms follow the SMILES beside them. NMeY = CN[C@@H](Cc1ccc(O)cc1)C(=O)O; dNMeF = CN[C@H](Cc1ccccc1)C(=O)O; Sar = CNCC(=O)O

Take `CC[C@H](C)[C@@H]1NC(=O)[C@H](Cc2ccc(O)cc2)N(C)C(=O)[C@H](Cc2ccccc2)NC(=O)CN(C)C(=O)[C@@H]2CCCN2C(=O)[C@@H](Cc2ccccc2)N(C)C(=O)[C@H](CC(C)C)NC1=O` [Compound 1, cordyheptapeptide A] (cyclo(F[NMeY]IL[dNMeF]P[Sar])): the concentration in solution (solubility) was 3.9 µM (≈ 3.43 µg/mL).

The values are drawn from publication PMC8545353 (ACS chemical biology, 2021).
